For the experiment, the target named is MAPKAPK2 (Homo sapiens, UniProt P49137). Put plainly: MK2 Enzymatic Assay. The experiment is classed as biochemical. The note with it: 0.5 nM MAPKAPK2, 3 μM ATP, 2 μM Ser/Thr4 peptide, 23° C., values given as concentration bins. In a few lines:
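MAPKAPK2 (2× stock 1 nM) and peptide substrate (2× 4 μM) were preincubated 20 min, then started with ATP (2× stock 6 μM) for 120 min. After 120 min development, coumarin/fluorescein emission ratio gave percent phosphorylation against 0% and 100% phosphopeptide controls.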

The structures appear in SMILES notation.

MAPKAPK2, sequence (P49137 whole entry, species assumed): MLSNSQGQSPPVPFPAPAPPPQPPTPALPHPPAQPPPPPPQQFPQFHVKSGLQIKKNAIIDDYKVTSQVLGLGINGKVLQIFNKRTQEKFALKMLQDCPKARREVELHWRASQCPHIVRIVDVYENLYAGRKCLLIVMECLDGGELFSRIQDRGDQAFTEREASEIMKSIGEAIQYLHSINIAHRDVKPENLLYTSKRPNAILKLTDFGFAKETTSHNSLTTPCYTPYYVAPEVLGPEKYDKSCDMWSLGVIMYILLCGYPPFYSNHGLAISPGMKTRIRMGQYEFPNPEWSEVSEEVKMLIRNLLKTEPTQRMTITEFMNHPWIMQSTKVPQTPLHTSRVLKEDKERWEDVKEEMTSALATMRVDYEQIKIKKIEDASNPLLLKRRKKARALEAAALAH

As usually defined, the IC50 is the point on the concentration scale where inhibition reaches its midpoint. `C[C@H](CO)NC[C@H]1CCN(c2cc3c(cn2)-n2ccnc2-c2cc(-c4ccc(F)cc4)cn2C3)C1` [Compound 442, (R)-2-((((R)-1-(12-(4-fluorophenyl)-9H-imidazo[2,1-c]pyrido[3,4-e]pyrrolo[1,2-a][1,4]diazepin-7-yl)pyrrolidin-3-yl)methyl)amino)propan-1-ol] gave an IC50 of 100 to 200 nM.

For `CN(C)C[C@@H]1CCN(c2cc3c(cn2)-n2cnnc2-c2cc(-c4ccc(F)cc4)cn2C3)C1` [Compound 443, (S)-1-(1-(12-(4-fluorophenyl)-9H-pyrido[3,4-e]pyrrolo[1,2-a][1,2,4]triazolo[3,4-c][1,4]diazepin-7-yl)pyrrolidin-3-yl)-N,N-dimethylmethanamine], the half-inhibitory concentration (IC50) lay within 100 to 200 nM.

`CN(C)[C@H]1CCN(c2ccc3c(c2)Cn2cc(-c4ccc(F)cc4F)cc2-c2nncn2-3)C1` [Compound 449, (S)-1-(12-(2,4-difluorophenyl)-9H-benzo[e]pyrrolo[1,2-a][1,2,4]triazolo[3,4-c][1,4]diazepin-7-yl)-N,N-dimethylpyrrolidin-3-amine] yielded an IC50 of 100 to 200 nM.

`CN[C@H]1CCN(c2ccc3c(c2)Cn2cc(-c4ccc(F)cc4F)cc2-c2ncnn2-3)C1` [Compound 451, (S)-1-(12-(2,4-difluorophenyl)-9H-benzo[e]pyrrolo[1,2-a][1,2,4]triazolo[5,1-c][1,4]diazepin-7-yl)-N-methylpyrrolidin-3-amine] gave an IC50 of 100 to 200 nM.

With `OC1CCN(C[C@H]2CCN(c3ccc4c(c3)Cn3cc(-c5ccccc5)cc3-c3nncn3-4)C2)CC1` [Compound 459, (R)-1-((1-(12-phenyl-9H-benzo[e]pyrrolo[1,2-a][1,2,4]triazolo[3,4-c][1,4]diazepin-7-yl)pyrrolidin-3-yl)methyl)piperidin-4-ol], the IC50 lay within 100 to 200 nM.

Turning to `c1ccc(-c2cc3n(c2)Cc2cc(N4CCC5(CNC5)C4)ccc2-n2ccnc2-3)cc1` [Compound 462, 12-phenyl-7-(2,6-diazaspiro[3.4]octan-6-yl)-9H-benzo[e]imidazo[2,1-c]pyrrolo[1,2-a][1,4]diazepine], the IC50 was under 50 nM.

The compound `CCNC[C@@H]1CCN(c2ccc3c(c2)Cn2cc(-c4ccc(F)cc4)cc2-c2nccn2-3)C1` [Compound 464, (S)—N-((1-(12-(4-fluorophenyl)-9H-benzo[e]imidazo[2,1-c]pyrrolo[1,2-a][1,4]diazepin-7-yl)pyrrolidin-3-yl)methyl)ethanamine] came in with an IC50 of under 50 nM.

On to `Fc1ccc(-c2cc3n(c2)Cc2cc(N4CC[C@@H](CNCC(F)F)C4)ccc2-n2ccnc2-3)cc1` [Compound 465, (S)-2,2-difluoro-N-((1-(12-(4-fluorophenyl)-9H-benzo[e]imidazo[2,1-c]pyrrolo[1,2-a][1,4]diazepin-7-yl)pyrrolidin-3-yl)methyl)ethanamine], for which the IC50 lay in the range of 200 to 1000 nM.

In turn, `CNC[C@H]1CN(c2ccc3c(c2)Cn2cc(-c4ccc(F)cc4)cc2-c2nccn2-3)C[C@H]1F` [Compound 466, 1-((3S,4S)-4-fluoro-1-(12-(4-fluorophenyl)-9H-benzo[e]imidazo[2,1-c]pyrrolo[1,2-a][1,4]diazepin-7-yl)pyrrolidin-3-yl)-N-methylmethanamine] gave an IC50 of under 50 nM.

As for `CN(C)C[C@H]1CN(c2ccc3c(c2)Cn2cc(-c4ccc(F)cc4)cc2-c2nccn2-3)C[C@H]1F` [Compound 467, 1-((3S,4S)-4-fluoro-1-(12-(4-fluorophenyl)-9H-benzo[e]imidazo[2,1-c]pyrrolo[1,2-a][1,4]diazepin-7-yl)pyrrolidin-3-yl)-N,N-dimethylmethanamine], the IC50 is under 50 nM.

On to `O[C@H]1CN(c2ccc3c(c2)Cn2cc(-c4ccc(F)cc4)cc2-c2nccn2-3)C[C@@H]1CN1CCCC1` [Compound 470, (3R,4S)-1-(12-(4-fluorophenyl)-9H-benzo[e]imidazo[2,1-c]pyrrolo[1,2-a][1,4]diazepin-7-yl)-4-(pyrrolidin-1-ylmethyl)pyrrolidin-3-ol], for which the IC50 was under 50 nM.

`O[C@@H]1CN(c2ccc3c(c2)Cn2cc(-c4ccc(F)cc4)cc2-c2nccn2-3)C[C@H]1CN1CCCC1` [Compound 471, (3S,4R)-1-(12-(4-fluorophenyl)-9H-benzo[e]imidazo[2,1-c]pyrrolo[1,2-a][1,4]diazepin-7-yl)-4-(pyrrolidin-1-ylmethyl)pyrrolidin-3-ol] displayed an IC50 of under 50 nM.

`O[C@H]1CN(c2ccc3c(c2)Cn2cc(-c4ccc(F)cc4)cc2-c2nccn2-3)C[C@@H]1CNC1CC1` [Compound 473, (3R,4S)-4-((cyclopropylamino)methyl)-1-(12-(4-fluorophenyl)-9H-benzo[e]imidazo[2,1-c]pyrrolo[1,2-a][1,4]diazepin-7-yl)pyrrolidin-3-ol] returned an IC50 of under 50 nM.

As to `CNC[C@@H]1CN(c2ccc3c(c2)Cn2cc(-c4ccc(F)cc4)cc2-c2nccn2-3)C[C@@H]1F` [Compound 474, 1-((3R,4R)-4-fluoro-1-(12-(4-fluorophenyl)-9H-benzo[e]imidazo[2,1-c]pyrrolo[1,2-a][1,4]diazepin-7-yl)pyrrolidin-3-yl)-N-methylmethanamine], the IC50 is under 50 nM.

Regarding `CN(C)C[C@@H]1CN(c2ccc3c(c2)Cn2cc(-c4ccc(F)cc4)cc2-c2nccn2-3)C[C@@H]1F` [Compound 475, 1-((3R,4R)-4-fluoro-1-(12-(4-fluorophenyl)-9H-benzo[e]imidazo[2,1-c]pyrrolo[1,2-a][1,4]diazepin-7-yl)pyrrolidin-3-yl)-N,N-dimethylmethanamine], the IC50 was under 50 nM.

As for `O=C(O)CN1CC2(CCN(c3ccc4c(c3)Cn3cc(-c5ccc(F)cc5)cc3-c3nccn3-4)C2)C1` [Compound 478, 2-(6-(12-(4-fluorophenyl)-9H-benzo[e]imidazo[2,1-c]pyrrolo[1,2-a][1,4]diazepin-7-yl)-2,6-diazaspiro[3.4]octan-2-yl)acetic acid], the IC50 lay in the range of 100 to 200 nM.

As to `CC(C)(NCC1CCN(c2ccc3c(c2)Cn2cc(-c4ccc(F)cc4)cc2-c2nccn2-3)C1)C(=O)O` (stereo not shown) [Compound 479, 2-(((1-(12-(4-fluorophenyl)-9H-benzo[e]imidazo[2,1-c]pyrrolo[1,2-a][1,4]diazepin-7-yl)pyrrolidin-3-yl)methyl)amino)-2-methylpropanoic acid], the 50% inhibitory concentration (IC50) fell in the range of 100 to 200 nM.

The compound `O=C(O)C1CCN(CC2CCN(c3ccc4c(c3)Cn3cc(-c5ccc(F)cc5)cc3-c3nccn3-4)C2)CC1` (stereo not shown) [Compound 480, 1-((1-(12-(4-fluorophenyl)-9H-benzo[e]imidazo[2,1-c]pyrrolo[1,2-a][1,4]diazepin-7-yl)pyrrolidin-3-yl)methyl)piperidine-4-carboxylic acid] had an IC50 of 50 to 100 nM.

On to `O=C1N[C@@H]2CN(c3ccc4c(c3)Cn3cc(-c5ccc(F)cc5)cc3-c3nccn3-4)C[C@@H]2O1` [Compound 481, (3aR,6aS)-5-(12-(4-fluorophenyl)-9H-benzo[e]imidazo[2,1-c]pyrrolo[1,2-a][1,4]diazepin-7-yl)hexahydro-2H-pyrrolo[3,4-d]oxazol-2-one], for which the IC50 was 200 to 1000 nM.

The compound `CNC[C@H]1CN(c2ccc3c(c2)Cn2cc(-c4ccc(F)cc4)cc2-c2nccn2-3)C[C@H]1O` [Compound 482, (3S,4S)-1-(12-(4-fluorophenyl)-9H-benzo[e]imidazo[2,1-c]pyrrolo[1,2-a][1,4]diazepin-7-yl)-4-((methylamino)methyl)pyrrolidin-3-ol] returned an IC50 of under 50 nM.

`CNC[C@@H]1CN(c2ccc3c(c2)Cn2cc(-c4ccc(F)cc4)cc2-c2nccn2-3)C[C@@H]1O` [Compound 483, (3R,4R)-1-(12-(4-fluorophenyl)-9H-benzo[e]imidazo[2,1-c]pyrrolo[1,2-a][1,4]diazepin-7-yl)-4-((methylamino)methyl)pyrrolidin-3-ol] came in with an IC50 of under 50 nM.

Compound `OC[C@H]1CN(c2ccc3c(c2)Cn2cc(-c4ccc(F)cc4)cc2-c2nccn2-3)C[C@@H]1O` [Compound 484, (3R,4R)-1-(12-(4-fluorophenyl)-9H-benzo[e]imidazo[2,1-c]pyrrolo[1,2-a][1,4]diazepin-7-yl)-4-(hydroxymethyl)pyrrolidin-3-ol] displayed an IC50 of 50 to 100 nM.

`OC[C@@H]1CN(c2ccc3c(c2)Cn2cc(-c4ccc(F)cc4)cc2-c2nccn2-3)C[C@H]1O` [Compound 485, (3S,4S)-1-(12-(4-fluorophenyl)-9H-benzo[e]imidazo[2,1-c]pyrrolo[1,2-a][1,4]diazepin-7-yl)-4-(hydroxymethyl)pyrrolidin-3-ol] returned a 50% inhibitory concentration (IC50) of 100 to 200 nM.

In the case of `NCCC1CCN(c2ccc3c(c2)Cn2cc(-c4ccc(F)cc4)cc2-c2nccn2-3)C1` (stereo not shown) [Compound 486, 2-(1-(12-(4-fluorophenyl)-9H-benzo[e]imidazo[2,1-c]pyrrolo[1,2-a][1,4]diazepin-7-yl)pyrrolidin-3-yl)ethanamine], the IC50 was under 50 nM.

Turning to `CNCCC1CCN(c2ccc3c(c2)Cn2cc(-c4ccc(F)cc4)cc2-c2nccn2-3)C1` (stereo not shown) [Compound 487, 2-(1-(12-(4-fluorophenyl)-9H-benzo[e]imidazo[2,1-c]pyrrolo[1,2-a][1,4]diazepin-7-yl)pyrrolidin-3-yl)-N-methylethanamine], the IC50 is under 50 nM.

In turn, `CN(C)CCC1CCN(c2ccc3c(c2)Cn2cc(-c4ccc(F)cc4)cc2-c2nccn2-3)C1` (stereo not shown) [Compound 488, 2-(1-(12-(4-fluorophenyl)-9H-benzo[e]imidazo[2,1-c]pyrrolo[1,2-a][1,4]diazepin-7-yl)pyrrolidin-3-yl)-N,N-dimethylethanamine] displayed an IC50 of under 50 nM.

Turning to `NC[C@H]1CCN(c2ccc3c(c2)Cn2cc(-c4ccc(F)cc4)cc2-c2ncnn2-3)C1` [Compound 496, (R)-(1-(12-(4-fluorophenyl)-9H-benzo[e]pyrrolo[1,2-a][1,2,4]triazolo[5,1-c][1,4]diazepin-7-yl)pyrrolidin-3-yl)methanamine], the IC50 was 50 to 100 nM.

For `CNC[C@H]1CN(c2ccc3c(c2)Cn2cc(-c4ccc(F)cc4)cc2-c2ncnn2-3)C[C@H]1F` [Compound 497, 1-((3S,4S)-4-fluoro-1-(12-(4-fluorophenyl)-9H-benzo[e]pyrrolo[1,2-a][1,2,4]triazolo[5,1-c] [1,4]diazepin-7-yl)pyrrolidin-3-yl)-N-methylmethanamine], the IC50 was under 50 nM.

(Values after patent US10562909B2, “Fused quadracyclic compounds, compositions and uses thereof” (Tabomedex Biosciences, LLC, priority 2016, dated 2020).)
